Data taken from ChEMBL document CHEMBL1201862, “PubChem BioAssay data set” (2004).
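Each compound was tested at five concentrations against cells in 96-well plates for 48 hours. The concentration for 50% growth inhibition is given as GI50.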 The source made the active and inactive calls. No stated cut-off is given here; in the data, active = GI50 up to about 1.1 µM and inactive = higher.

Tests used:
Experiment in all cases: DTP human tumour cell line panel, 48 h
DU-145 = test system: DU-145
KM12 = test system: KM12
UO-31 = test system: UO-31
HT-29 = test system: HT-29
LOX IMVI = test system: LOX IMVI
Malme-3M = test system: Malme-3M
PC-3 = test system: PC-3
SW-620 = test system: SW-620
UACC-62 = test system: UACC-62
Hs-578T = test system: Hs-578T
U-251 = test system: U-251
SR = test system: SR
SNB-75 = test system: SNB-75
SF-539 = test system: SF-539
NCI-H23 = test system: NCI-H23
SF-295 = test system: SF-295
SF-268 = test system: SF-268
CCRF-CEM = test system: CCRF-CEM
A549 = test system: A549
RXF 393 = test system: RXF 393

SMILES	GI50 (DU-145)	GI50 (KM12)	GI50 (UO-31)	GI50 (HT-29)	GI50 (LOX IMVI)	GI50 (Malme-3M)	GI50 (PC-3)	GI50 (SW-620)	GI50 (UACC-62)	GI50 (Hs-578T)	GI50 (U-251)	GI50 (SR)	GI50 (SNB-75)	GI50 (SF-539)	GI50 (NCI-H23)	GI50 (SF-295)	GI50 (SF-268)	GI50 (CCRF-CEM)	GI50 (A549)	GI50 (RXF 393)
N=C(N)SCc1ccc(Cl)c2ccccc12.O=[N+]([O-])c1ccc(O)c([N+](=O)[O-])c1	12.9 µM (inactive)	12.3 µM (inactive)	12.3 µM (inactive)	11.4 µM (inactive)	14.9 µM (inactive)	10 µM (inactive)	12.6 µM (inactive)	11.7 µM (inactive)	12.5 µM (inactive)	20.7 µM (inactive)	11.4 µM (inactive)	1.04 µM (active)	4.56 µM (inactive)	5.2 µM (inactive)	12.6 µM (inactive)	9.91 µM (inactive)	15.4 µM (inactive)	3.23 µM (inactive)	16.9 µM (inactive)	8.02 µM (inactive)
O=Cc1ccccc1B(O)O	< 0.01 µM (active)	> 100 µM (inactive)	54.1 µM (inactive)	18.9 µM (inactive)	20.7 µM (inactive)	–	22.1 µM (inactive)	25.7 µM (inactive)	31.5 µM (inactive)	0.231 µM (active)	30.7 µM (inactive)	< 0.01 µM (active)	43.8 µM (inactive)	> 100 µM (inactive)	–	> 100 µM (inactive)	> 100 µM (inactive)	6.34 µM (inactive)	12.7 µM (inactive)	15.7 µM (inactive)
O=C(O)c1cc(C(=O)O)cc(N2C(=O)c3ccccc3C2=O)c1	> 100 µM (inactive)	> 100 µM (inactive)	> 100 µM (inactive)	> 100 µM (inactive)	> 100 µM (inactive)	> 100 µM (inactive)	> 100 µM (inactive)	> 100 µM (inactive)	> 100 µM (inactive)	> 100 µM (inactive)	> 100 µM (inactive)	> 100 µM (inactive)	> 100 µM (inactive)	> 100 µM (inactive)	> 100 µM (inactive)	> 100 µM (inactive)	> 100 µM (inactive)	–	> 100 µM (inactive)	> 100 µM (inactive)
Nc1nc2c(c(-c3ccccc3Cl)n1)COC/C2=C\c1ccccc1Cl	16.9 µM (inactive)	17.9 µM (inactive)	17.1 µM (inactive)	–	18.7 µM (inactive)	–	14.3 µM (inactive)	16.6 µM (inactive)	16 µM (inactive)	21.8 µM (inactive)	16.8 µM (inactive)	5.16 µM (inactive)	15.9 µM (inactive)	18.2 µM (inactive)	17.1 µM (inactive)	14.3 µM (inactive)	16.9 µM (inactive)	11.7 µM (inactive)	–	16 µM (inactive)
Cc1c(-c2ccccc2)c(C#N)c2nnn(-c3ccc([N+](=O)[O-])cc3)c(=O)n12	5.38 µM (inactive)	12.7 µM (inactive)	–	8.99 µM (inactive)	17.5 µM (inactive)	24.2 µM (inactive)	3.48 µM (inactive)	7.78 µM (inactive)	37.1 µM (inactive)	14.1 µM (inactive)	9.93 µM (inactive)	7.31 µM (inactive)	14.5 µM (inactive)	10.1 µM (inactive)	21.3 µM (inactive)	18.7 µM (inactive)	12.7 µM (inactive)	8.43 µM (inactive)	–	17.4 µM (inactive)
COc1cc(C(=O)Oc2ccc3c(c2)OCO3)cc(OC)c1OC	> 100 µM (inactive)	> 100 µM (inactive)	> 100 µM (inactive)	> 100 µM (inactive)	> 100 µM (inactive)	> 100 µM (inactive)	> 100 µM (inactive)	> 100 µM (inactive)	> 100 µM (inactive)	> 100 µM (inactive)	> 100 µM (inactive)	> 100 µM (inactive)	> 100 µM (inactive)	> 100 µM (inactive)	> 100 µM (inactive)	> 100 µM (inactive)	> 100 µM (inactive)	–	> 100 µM (inactive)	> 100 µM (inactive)
O=P1(N(CCCl)CCCl)Oc2ccc(Cl)cc2Sc2c(ccc(Cl)c2Cl)O1 (stereo not given)	63.7 µM (inactive)	4.99 µM (inactive)	4.71 µM (inactive)	7.29 µM (inactive)	14.6 µM (inactive)	–	3.28 µM (inactive)	6.68 µM (inactive)	17.1 µM (inactive)	2.13 µM (inactive)	6.76 µM (inactive)	2.99 µM (inactive)	18.8 µM (inactive)	23.3 µM (inactive)	4.27 µM (inactive)	3.18 µM (inactive)	92.9 µM (inactive)	4.41 µM (inactive)	3.78 µM (inactive)	3.95 µM (inactive)
